Pest or weed control and plant injury data for six molecules are collected here from patent US9615577B2, “Herbicidally active cyclic dione compounds, or derivatives therefor, substituted by a phenyl which has an alkynyl-containing substituent” (Syngenta Limited, priority 2012, dated 2017).

Assay type in all cases: in vivo
Assay [1] relates to SORVU (Sorghum bicolor (L.) Moench ssp. Bicolor, or Sorghum vulgare Pers.). The assay is described as follows: Test 1B glasshouse assay for herbicidal activity, post-emergence. The settings on record: 360 h; for pest or weed control at 30 g/ha: 30 g/ha application rate. As to the method: (§1) Seeds of a variety of monocotyledonous and dicotyledonous test plants are sown in standard soil in pots. The plants are cultivated for one day (for pre-emergence) or for about 12 days (range=10-13 days) (for post-emergence) under controlled conditions in a glasshouse (warm climate species at 24/18° C., cool climate species at 20/16° C., both at day/night; 16 hours light; 65% humidity).
(§2) An “instant formulation”, known as the “IF50”, containing 50 g/liter (i.e. 5% w/v) of the “technical” (i.e. unformulated) active ingredient is prepared by dissolving the active ingredient in a mixture of organic solvents and emulsifier, details of which are provided in the Table below. This IF50 is then mixed with a small, variable amount of acetone to aid dissolution, before addition of a 0.2% v/v aqueous solution of the adjuvant X-77 (which is a mixture of alkyl aryl polyoxyethylene glycols and free fatty acids in isopropanol, CAS Registry number 11097-66-8), as the aqueous diluent, to form an aqueous spray solution which contains a predetermined concentration of the active ingredient (which varies depending on the application rate of the active ingredient to the plants) and 0.2% v/v of the adjuvant X-77. This aqueous spray solution is then sprayed onto the plants, after one day's cultivation (for pre-emergence) or after about 12 days' cultivation (for post-emergence).
(§3) The test plants are then grown on, in a glasshouse (greenhouse) under controlled conditions (at either 24/18° C. or 20/16° C. (day/night) as mentioned above; 16 hours light; 65% humidity) and are watered twice daily. Either 15 days after application of the herbicide (15 DAA) (for post-emergence), or 20 days after application of the herbicide (20 DAA) (for pre-emergence), the test plants are evaluated visually, and an assessed percentage phytotoxicity score is given for each herbicidal application on each plant species (where 100%=total damage to plant; 0%=no damage to plant).
(§4) Warm climate (“warm season”) grassy monocotyledonous weeds: Setaria faberi (SETFA), SORVU (Sorghum bicolor (L.) Moench ssp. Bicolor, or Sorghum vulgare Pers.), Digitaria sanguinalis (DIGSA), Echinochloa crus-galli (ECHCG), and Brachiaria plantaginea (BRAPL).

The subject of assay [2] is Setaria faberi (SETFA). The description is as above. The settings on record: 360 h; for pest or weed control at 30 g/ha: 30 g/ha application rate. The protocol: as §1, §2, §3, §4
The subject of assay [3] is Digitaria sanguinalis (DIGSA). The assay is described as above. The settings on record: 360 h; for pest or weed control at 30 g/ha: 30 g/ha application rate. As to the method: as §1, §2, §3, §4
Assay [4] concerns Beta vulgaris (BEAVA, sugar beet). The assay is described as above. To be noted: 360 h; for plant injury at 30 g/ha: 30 g/ha application rate. As to the method: as §1, §2, §3
(§5) Cool climate crop plants: Triticum aestivum (TRZAW, winter wheat), Brassica napus (BRSNN, rape, also called oilseed rape or rapeseed), Beta vulgaris (BEAVA, sugar beet).

In assay [5] the test system is Triticum aestivum (TRZAW, winter wheat). Described as above. The settings on record: 360 h; for plant injury at 30 g/ha: 30 g/ha application rate. The protocol: as §1, §2, §3, §5
The subject of assay [6] is Brassica napus (BRSNN, rape). Described as above. The settings on record: 360 h; for plant injury at 30 g/ha: 30 g/ha application rate. As to the method: as §1, §2, §3, §5
Assay [7] deals with Amaranthus retroflexus (AMARE). Briefly: Test 1A glasshouse assay for herbicidal activity, post-emergence. To be noted: 312 h, evaluated after 13 days, read-out: percentage phytotoxicity AMARE. A digest of the protocol:
(§6)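 Visual % phytotoxicity (0 = no damage, 100 = total damage) scored 13 d after spraying. Pots sown in standard soil; spray applied 1 d post-sowing for pre-emergence, 8 d for post-emergence. Vehicle acetone/water 50:50 + 0.5% Tween 20; glasshouse 24/16 °C, 14 h light, 65% RH, watered twice daily.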

The subject of assay [8] is Echinochloa crus-galli (ECHCG). The assay is described as above. The settings on record: 312 h, evaluated after 13 days, read-out: percentage phytotoxicity ECHCG. The method in brief: as §6
Another assay deals with Lolium perenne (LOLPE). The assay is described as follows: Test 1B glasshouse assay for herbicidal activity, post-emergence. The settings on record: 360 h; for pest or weed control at 30 g/ha: 30 g/ha application rate. The protocol: as §1, §2, §3
(§7) Cool climate (“cool season”) grassy monocotyledonous weeds: Alopecurus myosuroides (ALOMY), Avena fatua (AVEFA), Lolium perenne (LOLPE).

Assay [9] deals with Alopecurus myosuroides (ALOMY). Described as above. To be noted: 360 h; for pest or weed control at 30 g/ha: 30 g/ha application rate. The protocol: as §1, §2, §3, §7
For a further assay, the system named is Avena fatua (AVEFA). The assay is described as above. To be noted: 360 h; for pest or weed control at 30 g/ha: 30 g/ha application rate. As to the method: as §1, §2, §3, §7
For assay [10], the system named is Glycine max (GLXMA, soybean). Described as above. The settings on record: 360 h; for plant injury at 30 g/ha: 30 g/ha application rate. As to the method:
as §1, §2, §3
Warm climate crop plants: Glycine max (GLXMA, soybean).

Assay [11] deals with Setaria faberi (SETFA). Briefly: Test 1A glasshouse assay for herbicidal activity, pre-emergence. To be noted: 312 h, 250 g/ha, evaluated after 13 days, read-out: percentage phytotoxicity SETFA. A digest of the protocol: as §6
For assay [12], the system named is Amaranthus retroflexus (AMARE). Described as above. To be noted: 312 h, 250 g/ha, evaluated after 13 days, read-out: percentage phytotoxicity AMARE. The method in brief: as §6
The test system of assay [13] is Alopecurus myosuroides (ALOMY). Described as above. The settings on record: 312 h, 250 g/ha, evaluated after 13 days, read-out: percentage phytotoxicity ALOMY. A digest of the protocol: as §6
The test system of assay [14] is Echinochloa crus-galli (ECHCG). The description is as above. To be noted: 312 h, 250 g/ha, evaluated after 13 days, read-out: percentage phytotoxicity ECHCG. A digest of the protocol:
as §6

The test system of assay [15] is Abutilon theophasti Medik. (ABUTH). Briefly: Test 1A glasshouse assay for herbicidal activity, post-emergence. The settings on record: 312 h, evaluated after 13 days, read-out: percentage phytotoxicity ABUTH. The method in brief:
as §6

For the molecule `Cc1cc(C#CCl)cc(C)c1C1C(=O)CC(CC2CCOCC2)CC1=O` (stereo not drawn) [Compound A-8], the pest or weed control at 30 g/ha came to 90% in assay [1]; 90% in the assay with Setaria faberi (SETFA) [2]; 100% in assay [3]; 40% in the assay with Lolium perenne (LOLPE); 80% in assay [9]; 70% in the assay with Avena fatua (AVEFA). Also, the plant injury at 30 g/ha worked out at 30% in [4], 50% in assay [5], 70% in assay [6] and 50% in assay [10]. Besides, the pest or weed control at 250 g/ha turned out to be 40% in [7]; 100% in [8]; 90% in the assay with Setaria faberi (SETFA) [11]; 90% in assay [12]; 90% in assay [13]; 100% in [14].

Regarding `CC#Cc1cc(C)c(C2C(=O)CC(CC3CCOCC3)CC2=O)c(C)c1` (stereo not drawn) [Compound A-9], the pest or weed control at 30 g/ha in assay [1] was found to be 80%; with Setaria faberi (SETFA) [2], 90%; in assay [3], 100%; in the assay on Lolium perenne (LOLPE), 60%; in assay [9], 80%; in the assay on Avena fatua (AVEFA), 70%. The plant injury at 30 g/ha in assay [4] came out at 0%; in [5] it was 60%; in assay [6], 50%; in assay [10], 60%. Further, the pest or weed control at 250 g/ha in assay [7] was 30%; in [8], 100%; in the assay with Setaria faberi (SETFA) [11], 100%; in assay [12], 100%; in assay [13], 100%; in assay [14], 100%.

Consider `CC#Cc1cc(Cl)c(C2C(=O)C3CCC(C3)C2=O)c(OCC)c1` (stereo not drawn) [Compound A-16], for which the pest or weed control at 30 g/ha was determined as 80% in assay [1]; 80% with Setaria faberi (SETFA) [2]; 80% in assay [3]; 60% in [15]; 30% in assay [7]; 100% in [8]. Also, the pest or weed control at 30 g/ha turned out to be 20% with Lolium perenne (LOLPE), 20% in assay [9] and 0% in the assay on Avena fatua (AVEFA). The pest or weed control at 125 g/ha was 100% in assay [1] (125 g/ha application rate); 100% in the assay with Setaria faberi (SETFA) [2] (125 g/ha application rate); 100% in assay [3] (125 g/ha application rate); 70% in the assay with Lolium perenne (LOLPE) (125 g/ha application rate); 80% in assay [9] (125 g/ha application rate); 60% in the assay with Avena fatua (AVEFA) (125 g/ha application rate). In addition, the plant injury at 30 g/ha in [4] stood at 0%; in [5], 10%; in assay [6], 10%; in assay [10], 0%. The plant injury at 125 g/ha in assay [4] (125 g/ha application rate) worked out at 0%; in assay [5] (125 g/ha application rate), 60%; in assay [6] (125 g/ha application rate) it was 50%; in [10] (125 g/ha application rate), 30%. Besides, the pest or weed control at 250 g/ha was found to be 60% in assay [15]; 70% in [7]; 100% in [8]; 100% in the assay with Setaria faberi (SETFA) [11]; 80% in assay [12]; 100% in assay [13]. Further, the pest or weed control at 250 g/ha in [14] worked out at 100%.

Turning to `CC#Cc1cc(Cl)c(C2C(=O)C3CCC(C)(C2=O)C3(C)C)c(OC)c1` (stereo not drawn) [Compound A-17], the pest or weed control at 250 g/ha in assay [1] (250 g/ha application rate) is 80%; with Setaria faberi (SETFA) [2] (250 g/ha application rate) it was 80%; in assay [3] (250 g/ha application rate), 70%; in assay [15] it was 10%; in assay [7], 0%; in assay [8], 100%. Further, the pest or weed control at 250 g/ha in the assay on Lolium perenne (LOLPE) (250 g/ha application rate) was 20%; in assay [9] (250 g/ha application rate), 50%; in the assay with Avena fatua (AVEFA) (250 g/ha application rate), 0%; in the assay with Setaria faberi (SETFA) [11], 90%; in assay [12], 60%; in [13], 90%. Also, the pest or weed control at 250 g/ha in assay [14] was determined as 100%. Further, the plant injury at 250 g/ha in [4] (250 g/ha application rate), in assay [5] (250 g/ha application rate), in [6] (250 g/ha application rate) and in assay [10] (250 g/ha application rate) was 10% throughout.

Regarding `CC#Cc1cc(Cl)c(C2C(=O)CC3(CCOCC3)CC2=O)c(OC)c1` [Compound A-20, 9-(2-Chloro-6-methoxy-4-prop-1-ynyl-phenyl)-3-oxa-spiro[5.5]undecane-8,10-dione], the pest or weed control at 8 g/ha in assay [15] (8 g/ha) is 50%; in assay [7] (8 g/ha) it was 10%; in [8] (8 g/ha), 100%. The figures for the pest or weed control at 30 g/ha in assay [15], in assay [7] and in [8] were 80%, 80% and 100%, respectively. Also, the pest or weed control at 250 g/ha stood at 80% in assay [15]; 80% in assay [7]; 100% in [8]; 100% in the assay on Setaria faberi (SETFA) [11]; 90% in [12]; 100% in assay [13]. Further, in assay [14], the pest or weed control at 250 g/ha is 100%.

`CC#Cc1cc(C)c(C2C(=O)CC(CCSC)CC2=O)c(C)c1` (stereo not drawn) [Compound A-21, 2-(2,6-Dimethyl-4-prop-1-ynyl-phenyl)-5-(2-methylsulfanyl-ethyl)cyclohexane-1,3-dione]: the results for the pest or weed control at 30 g/ha in assay [15], in assay [7] and in [8] were 10%, 80% and 80%, respectively. Moreover, the pest or weed control at 250 g/ha in assay [15] was found to be 60%; in assay [7], 20%; in assay [8], 100%; in the assay with Setaria faberi (SETFA) [11], 100%; in [12] it was 90%; in assay [13], 100%. Moreover, the pest or weed control at 250 g/ha in assay [14] worked out at 100%.

The term plant injury denotes the degree to which the test organism was suppressed or injured, in per cent.
